Data taken from paper PMC8447191, “Peptide Amphiphilic-Based Supramolecular Structures with Anti-HIV-1 Activity” (Bioconjugate Chemistry, 2021).
Read-outs that look alike come from different tables or passages of the source. *1 amine or outer side, *2 acyl side, *3 side chain or, on linkers, in order; H or OH if unused. Where a SMILES comes first, the peptide text is derived from it. Side-chain parts run from the residue outwards. The star is where a group is joined. X1 = CC(C)CCC[C@@H](C)[C@H]1CC[C@H]2[C@@H]3CC=C4C[C@@H](OC(=O)CSC[C@H](N)C(=O)*)CC[C@]4(C)[C@H]3CC[C@]12C; PEG28 = NCCOCCOCCOCCOCCOCCOCCOCCOCCOCCOCCOCCOCCOCCOCCOCCOCCOCCOCCOCCOCCOCCOCCOCCOCCOCCOCCOCCOCCC(=O)O; N(octadecyl)2 = CCCCCCCCCCCCCCCCCCN(CCCCCCCCCCCCCCCCCC)*; NHOctadecyl = CCCCCCCCCCCCCCCCCCN*; Suc = O=C(CCC(=O)[*:2])[*:1]

Legend:
[1] = system: HIV-1BaL; format: cell-based; details: for IC50 / IC95: HIV-1BaL, TZM-bl cells, peptide 10-0.00061 μM for 1 h at 37 °C before virus, luciferase after 48 h, sigmoid fit, mean of triplicates; for SI (CC50/IC50): ratio of CC50 (MTT assay) to IC50 (HIV-1BaL, TZM-bl cells)
Protocol: HIV-1BaL[52] was provided by the NIH AIDS Research & Reference Reagent Program (http://www.aidsreagent.org/). Viral stock was prepared by passage through activated PBMCs[53] for 11 days.
Luciferase-reporter HeLa cells stably transfected to express CD4 and CCR5; TZM-bl cells[54]−[56] were grown in Dulbecco’s Minimal Essential Medium (DMEM) (Sigma-Aldrich, Inc., St. Louis, MO) containing 10% fetal calf serum (FCS), 2 mM L-glutamine, and antibiotics (100 U of penicillin/mL, 100 μg of streptomycin/mL) at 37 °C in an atmosphere containing 5% CO2.
(§1) All inhibition assays in cellular and tissue explants models were performed using a standardized amount of virus culture supernatant normalized for infectivity. TZM-bl cells were incubated with serial dilutions of peptides (from 10 μM to 0.00061 μM) for 1 h at 37 °C, prior to challenge with HIV-1BaL. Luciferase expression (r.l.u. values) was determined after 48 h. Alternatively, tissue explants were incubated with serial dilutions of peptide (from 100 μM to 0.1 μM) for 1 h before virus (10^4 TCID50/mL) was added for 2 h. Explants were then washed four times with PBS to remove unbound virus and drug. Colorectal explants were then transferred onto gelfoam rafts (Welbeck Pharmaceuticals, UK) and cultured for 15 days as described previously[57] […]. Explants were cultured for up to 15 days in the absence of peptide. Approximately 50% of the supernatants were harvested every 2–3 days and explants were re-fed with fresh media. The extent of viral replication in tissue explants was determined by measuring the p24 antigen concentration in supernatants (INNOTEST HIV antigen mAb; Fujirebio Europe, Belgium). The extent of inhibition by each peptide was calculated. The percentage of inhibition was normalized relative to the r.l.u, for TZM-bl cells, or p24, for tissue explants, values obtained for cells or explants cultured in the absence of virus (100% inhibition) and for cells or explants infected with virus in the absence of peptide (0% inhibition). Data are the mean (±SEM) of triplicates. When a dose–response curve was obtained, IC50 and, if possible, IC95 values were calculated from sigmoid curve fits (GraphPad Prism). For all curves, R^2 is >0.7.

[2] = system: HIV-1BaL; format: cell-based; details: colorectal tissue explants, peptide 100-0.1 μM for 1 h before and 2 h during virus (pulse, 3 h), p24 ELISA at day 15, mean (SEM) of triplicates
Description: Human tissue explants: Surgically resected specimens of colorectal tissues were collected from HIV negative patients at St. Mary’s Hospital, Imperial College Healthcare NHS Trust, London, UK. All tissues were collected after receiving signed informed consent from all patients through the Imperial College Healthcare Tissue Bank approved by Research Ethics Committee Wales (IRAS 17/WA/0161). On arrival in the laboratory, resected tissue was cut into 2–3 mm^3 explants comprising both epithelial and muscularis mucosae as described previously.[57] Tissue explants were maintained with DMEM containing 10% fetal calf serum, 2 mM L-glutamine, and antibiotics (100 U of penicillin/mL, 100 μg of streptomycin/mL, 80 μg of gentamicin/mL) at 37 °C in an atmosphere containing 5% CO2.
as §1

[3] = MTT cytotoxicity assay; format: cell-based; details: human, HeLa-env cells, PAs coassembled with 5% FAM, 40-2.3 μM, absorbance 560 nm
Protocol: The metabolic activity of the cell line, related to the cytotoxic effect of the compounds to be tested, is measured after 24 h using the MTT assay. This assay is based on the metabolic reduction of 3-(4,5-dimethylthiazol-2-yl)-2,5-diphenyl-2H-tetrazolium bromide (MTT), carried out by the mitochondrial enzyme succinate dehydrogenase, in a colored compound of blue color (formazan) that can be monitored by absorbance spectroscopy at 560 nm, allowing determination of the mitochondrial functionality of the treated cells.
The HeLa-env cell line is seeded in 96-well plates with an initial density of 15,000 cells per well in 100 μL of culture medium (Dulbecco’s modified Eagle’s medium, DMEM, with 10% FBS added) and incubated for 24 h at 37 °C and 5% CO2 to allow their adhesion. The cell monolayers are washed with PBS, and then 100 μL of PAs formulations (peptide amphiphiles coassembled with 5% FAM) are added in a concentration range from 40 μM to 2.3 μM. The plates are kept in incubation for further 24 h.
At the end of the incubation time, the cells are incubated for 3 h with 1 mg/mL of MTT, dissolved in culture medium without FBS, to allow the formation of formazan crystals. Subsequently, 100 μL of DMSO are added to wells, stirring the plates for 30 min at room temperature to facilitate the complete dissolution of the crystals. Finally, the absorbance at 560 nm is measured in a microplate reader.
The results are expressed as relative percentage between absorbance of PA formulations against absorbance of its DMSO controls and CC50 and CC25 values are taken from dose–response curves.

[4] = Visual stability and aspect of POPC vesicles mixed with PAs (SAXS samples); format: physicochemical; details: POPC 20 mM + 2 mM PA, 0.5% DMSO
Protocol: In Figure 5A,B, we show the spectra corresponding to POPC 20 mM and POPC 20 mM + 2 mM PAs (all of them in the presence of 0.5% DMSO). The band centered at 1.2 nm^–1 and the secondary band at 3.2 nm^–1 were typical of unilamellar vesicles.[35]
The incorporation of PAs had some distinct consequences. The first and more obvious one is the distinction between stable and unstable systems.

[5] = design: method as in 2 sources, ref 31, 32 = [31]; doi:10.1007/BF02682570; Schick M. J. ( 1966 ) Micelle formation in mixtures of nonionic and cationic detergents . J. Am. Oil Chem. Soc. 43 , 681 – 682 . 10.1007/BF02682570 . || [32]; doi:10.1016/0021-9797(70)90007-X; Barry B. W.; Morrison J. C.; Russell G. F. ( 1970 ) Prediction of the critical micelle concentration of mixtures of alkyltrimethylammonium salts . J. Colloid Interface Sci. 33 , 554 – 561 . 10.1016/ ||| ref 33, 34 = [33]; PMID 17658541; doi:10.1016/j.jcis.2007.06.010; Rodríguez J. L.; Sierra M. B.; Messina P. V.; Morini M. A.; Schulz P. C.; del Burgo P.; Junquera E.; Rodríguez A.; Aicart E. ( 2007 ) Surface and bulk properties of aqueous decyltrimethylammon || [34]; PMID 25356774; doi:10.1039/C4SM01575D; Pucci C.; Pérez L.; La Mesa C.; Pons R. ( 2014 ) Characterization and stability of catanionic vesicles formed by pseudo-tetraalkyl surfactant mixtures . Soft Matter 10 , 9657 – 9667 . 10.1039/C4SM0; details: cited from earlier work

CCCCCCCCCCCCCCCCCCNC(=O)CCC(=O)NCCOCCOCCOCCOCCOCCOCCOCCOCCOCCOCCOCCOCCOCCOCCOCCOCCOCCOCCOCCOCCOCCOCCOCCOCCOCCOCCOCCOCCC(=O)NCCCC[C@H](NC(=O)[C@@H](NC(=O)[C@@H](NC(=O)CNC(=O)[C@H](CCCNC(=N)N)NC(=O)[C@H](Cc1c[nH]c2ccccc12)NC(=O)[C@H](Cc1ccccc1)NC(=O)[C@H](CC(=O)O)NC(=O)[C@H](Cc1ccccc1)NC(=O)[C@@H]1CCCN1C(=O)[C@@H](NC(=O)[C@H](CCCCN)NC(=O)[C@H](Cc1c[nH]c2ccccc12)NC(=O)[C@H](CC(C)C)NC(=O)[C@H](Cc1ccc(O)cc1)NC(=O)[C@H](CCC(=O)O)NC(=O)[C@H](CC(C)C)NC(=O)[C@@H](NC(=O)[C@@H](N)Cc1c[nH]c2ccccc12)[C@@H](C)CC)C(C)C)C(C)C)[C@@H](C)CC)C(N)=O [C-PAmonoalkyl] (H-WILEYLWKVPFDFWRGVIK([PEG28-Suc-NHOctadecyl])-NH2)
IC50 [1]: 0.08 µM
IC95 [1]: 5.60 µM
SI (CC50/IC50) [1]: 250
IC50 [2]: 3.48 µM
IC95 [2]: 24.29 (3.61) μM
CC50 at 24 h [3]: 20 µM
stability / aspect of the sample [4]: bluish
lamellar characteristic distance: 4.7 nm

CCCCCCCCCCCCCCCCCCNC(=O)CCC(=O)NCCOCCOCCOCCOCCOCCOCCOCCOCCOCCOCCOCCOCCOCCOCCOCCOCCOCCOCCOCCOCCOCCOCCOCCOCCOCCOCCOCCOCCC(=O)N[C@@H](Cc1c[nH]c2ccccc12)C(=O)N[C@H](C(=O)N[C@@H](CC(C)C)C(=O)N[C@@H](CCC(=O)O)C(=O)N[C@@H](Cc1ccc(O)cc1)C(=O)N[C@@H](CC(C)C)C(=O)N[C@@H](Cc1c[nH]c2ccccc12)C(=O)N[C@@H](CCCCN)C(=O)N[C@H](C(=O)N1CCC[C@H]1C(=O)N[C@@H](Cc1ccccc1)C(=O)N[C@@H](CC(=O)O)C(=O)N[C@@H](Cc1ccccc1)C(=O)N[C@@H](Cc1c[nH]c2ccccc12)C(=O)N[C@@H](CCCNC(=N)N)C(=O)NCC(=O)N[C@H](C(=O)N[C@H](C(N)=O)[C@@H](C)CC)C(C)C)C(C)C)[C@@H](C)CC [N-PAmonoalkyl] ({NHOctadecyl-Suc-PEG28}-WILEYLWKVPFDFWRGVI-NH2)
IC50 [1]: 0.2 µM
IC95 [1]: 5.87 µM
SI (CC50/IC50) [1]: 85
IC50 [2]: 0.28 µM
IC95 [2]: 2.53 (1.14) μM
CC50 at 24 h [3]: 17 µM
stability / aspect of the sample [4]: precipitated rather fast and made compact flocks

CC[C@H](C)[C@H](NC(=O)[C@@H](NC(=O)CNC(=O)[C@H](CCCNC(=N)N)NC(=O)[C@H](Cc1c[nH]c2ccccc12)NC(=O)[C@H](Cc1ccccc1)NC(=O)[C@H](CC(=O)O)NC(=O)[C@H](Cc1ccccc1)NC(=O)[C@@H]1CCCN1C(=O)[C@@H](NC(=O)[C@H](CCCCN)NC(=O)[C@H](Cc1c[nH]c2ccccc12)NC(=O)[C@H](CC(C)C)NC(=O)[C@H](Cc1ccc(O)cc1)NC(=O)[C@H](CCC(=O)O)NC(=O)[C@H](CC(C)C)NC(=O)[C@@H](NC(=O)[C@@H](N)Cc1c[nH]c2ccccc12)[C@@H](C)CC)C(C)C)C(C)C)C(=O)N[C@@H](CCCCNC(=O)CCOCCOCCOCCOCCOCCOCCOCCOCCOCCOCCOCCOCCOCCOCCOCCOCCOCCOCCOCCOCCOCCOCCOCCOCCOCCOCCOCCOCCNC(=O)[C@@H](N)CSCC(=O)O[C@H]1CC[C@@]2(C)C(=CC[C@H]3[C@@H]4CC[C@H]([C@H](C)CCCC(C)C)[C@@]4(C)CC[C@@H]32)C1)C(N)=O [C-PAchol] (H-WILEYLWKVPFDFWRGVIK([PEG28-X1])-NH2)
IC50 [1]: 1.71 µM
CC50 at 24 h [3]: > 40 µM
stability / aspect of the sample [4]: bluish
lamellar characteristic distance: 4.9 nm

CCCCCCCCCC[N+](C)(C)C.[Br-] [decyl trimethyl ammonium bromide]
CMC [5]: 66.8 mM

CCCCCCCCCCCCCCCCCCN(CCCCCCCCCCCCCCCCCC)C(=O)CCC(=O)NCCOCCOCCOCCOCCOCCOCCOCCOCCOCCOCCOCCOCCOCCOCCOCCOCCOCCOCCOCCOCCOCCOCCOCCOCCOCCOCCOCCOCCC(=O)NCCCC[C@H](NC(=O)[C@@H](NC(=O)[C@@H](NC(=O)CNC(=O)[C@H](CCCNC(=N)N)NC(=O)[C@H](Cc1c[nH]c2ccccc12)NC(=O)[C@H](Cc1ccccc1)NC(=O)[C@H](CC(=O)O)NC(=O)[C@H](Cc1ccccc1)NC(=O)[C@@H]1CCCN1C(=O)[C@@H](NC(=O)[C@H](CCCCN)NC(=O)[C@H](Cc1c[nH]c2ccccc12)NC(=O)[C@H](CC(C)C)NC(=O)[C@H](Cc1ccc(O)cc1)NC(=O)[C@H](CCC(=O)O)NC(=O)[C@H](CC(C)C)NC(=O)[C@@H](NC(=O)[C@@H](N)Cc1c[nH]c2ccccc12)[C@@H](C)CC)C(C)C)C(C)C)[C@@H](C)CC)C(N)=O [C-PAdialkyl] (H-WILEYLWKVPFDFWRGVIK([PEG28-Suc-N(octadecyl)2])-NH2)
CC50 at 24 h [3]: 25 µM
stability / aspect of the sample [4]: bluish
lamellar characteristic distance: 5.7 nm

CCCCCCCCCCCCCCCC[N+](C)(C)C [hexadecyl trimethyl ammonium bromide]
CMC [5]: 0.8 mM
